# Experimental data taken from patent US20210239681A1, “COMPOSITIONS AND METHODS FOR […] OF […]-BASED IMMUNOTHERAPEUTICS” (ADVAXIS, INC., priority 2018, published 2021).
# Assays:
# Assay type in all cases: cell-based, human
# THP-1 cells [1] = experiment: Cytokine production by THP-1 in the absence of T cells; parameters: IL-6: unit not given here
# Experimental: Analysis Kits and Reagents: Analysis of cytokine concentrations in culture medium used the U-plex assay kits from Meso Scale Discovery. Expression of T cell receptors specific for E7 peptide bound to HLA-A*02:01 was detected using HLA-A*02:01/peptide tetramers from MBL International (Woburn, Mass.).
# Infection of THP-1: The THP-1 cell line was infected with either ADXS11-001 or XFL7 by incubating 10^6 cells with dilutions of bacteria in a 1 mL volume of RPMI 1640 10% FBS. […] After incubation with gentamicin the cells were washed again and resuspended to the desired cell concentration.
# T cell cytokine expression analysis. An initial experiment using THP-1 as antigen presenting cells was performed using a T cell culture containing 6% E7 (11-20) specific T cells based upon staining with HLA-A*02:01/peptide tetramer. THP-1 cells were infected as described using two different concentrations of bacteria and then co-cultured with the T cells. Controls included uninfected THP-1 cells and THP-1 cells incubated with (exposed to) either the 9mer or 10mer peptide for one hour. After an overnight co-culture, medium was collected for analysis of cytokines.
# To further explore the importance of the overnight incubation of infected THP-1, THP-1 cells infected overnight were compared to THP-1 cells infected for 2 hours. T cells specific for 9mer and 10mer peptides were co-cultured with each of the THP-1 cells and with uninfected or peptide exposed THP-1. As before, medium was collected after an overnight co-culture and cytokines were measured.
# (§1) Titration studies with different multiplicity of infection (MOI). THP cells were infected for 2 hours with 3 different dilutions (MOI) of Listeria. Infected or uninfected THP cells were then cultured overnight for 24 hours before co-culturing the T cells. Cells were co-cultured overnight before cytokine analysis.
# HPV E7 Specific T cells = experiment: THP-1/T cell co-culture: MOI, infection time and cell ratio titration; parameters: IFNγ / IL-1β / IL-6 / TNF-α: unit not given here; settings: for IFNγ production / IFNγ / IL-1β / IL-6 / TNF-α: THP-1 + peptide; for IFNγ production: THP-1 Cells 40000
# Experimental: A separate experiment was performed with a range of MOI and 5 hours infection time. In this experiment only IFNγ was measured since this cytokine is only made by the T cells, not THP-1 cells. While there was still recognition of the ADXS11-001 infected THP-1 cells it was not as great as that observed in overnight cultures when compared to the peptide incubated THP-1.
# The MOI used for infection was varied over a range of bacterial concentration. In Table 12 the effect of the different MOI on cytokine secretion by THP-1 is shown. […] Secretion of IFNγ by the T cells was related to the MOI with higher MOI stimulating higher IFNγ production, though there was significant IFNγ at all MOI.
# Cell number and ratio of T cells to THP-1 cells was also analyzed. The above experiments all used 20,000 T cells and 20,000 THP-1 cells per well (1:1 ratio). We initially investigated the effect of cell number using THP-1 incubated with peptide. The number of both T cells and THP-1 were varied. THP-1 cells ranging from 40,000 cells to 5000 cells per well were incubated with T cells ranging from 20,000 to 5000 cells per well. Effect of varying THP-1 to T cell ratio on IFNγ production was investigated at both higher (1 μg/ml) and lower (0.1 μg/ml) peptide concentrations.
# We investigated if this effect is reproducible in infected THP cells. Varying concentration of infected THP-1 cells ranging from 40000 to 10000 cells per well were incubated with T cells ranging from 40000 to 10000 cells per well to identify the optimum cell ratio for the assay. The effect of cell ratio on IFNγ production is similar to the effect observed with peptide incubation.
# as §1
# PBMC = experiment: Cytokine release by donor PBMC cultured with peptide; parameters: unit not given beside the values; settings: release on antigen
# Experimental: Peripheral blood mononuclear cells (PBMCs) samples were collected from three human HLA-A*02:01 donors: 358, 213, and 224. The peripheral blood mononuclear cells (PBMCs) were cultured with one of two E7 peptides: […] (9mer or 1T; SEQ ID NO: 100) or […] (10mer or 2T; SEQ ID NO: 101). After 10 days culture, the PBMCs were tested for E7 peptide binding staining and cytokine release.
# T cells = experiment: Intracellular cytokine staining of T cells; settings: Brefeldin A, FIG. 9
# Experimental: (§2) To identify cytokines that can be used to measure potency of a Listeria-based therapeutic the following tests were performed. Intracellular cytokine staining was used to detect T cells specificity. THP-1 were incubated with peptide overnight, mixed with T cells from above and centrifuged. The collected cells were then co-cultured at 37° C. for 1 hour. Brefeldin A was then added and the cells were co-cultured for another 4 hours. Brefeldin A inhibits secretion and permits analysis by flow cytometry. Cell were then stained to identify dead cells and CD8+ cells. The cell were then fixed and stained for IFNγ (using fix and permeabilization buffer from eBioscience/Invitrogen).
# THP-1 cells [2] = experiment: Intracellular cytokine staining of THP-1 cells; settings: FIGS. 3A-3C, FIG. 10
# Experimental: as §2
# Intracellular cytokine staining of THP-1 cells.
# [3] = Cytokine secretion by THP-1 after infection or + E7 peptide (No T cells), mean of triplicate
# [4] = THP-1 + peptide, THP-1 cell alone
# [5] = THP-1 + peptide, THP-1 cells only
# [6] = THP-1 incubated with peptide, absence of T cells
sequence,measurement,setting,value
YMLDLQPETT [10mer],"IFNγ production, THP-1 alone","THP-1 cells [1]; 50 μg/mL gentamicin, Listeria MOI of 10, optical density",0.058
same,IFNγ,THP-1 cells [1]; [3],36.7 pg/mL
same,IL-1β,THP-1 cells [1]; [3],0.2 pg/mL
same,IL-2,THP-1 cells [1]; [3],4.6 pg/mL
same,IL-4,THP-1 cells [1]; [3],0.6 pg/mL
same,IL-5,THP-1 cells [1]; [3],<LLOD
same,IL-8,THP-1 cells [1]; [3],11.8 pg/mL
same,IL-10,THP-1 cells [1]; [3],0.4 pg/mL
same,IL-12p70,THP-1 cells [1]; [3],0.3 pg/mL
same,IL-13,THP-1 cells [1]; [3],<LLOD
same,TNF-α,THP-1 cells [1]; [3],15.5 pg/mL
same,IFNγ,THP-1 cells [1]; [4],9
same,IL-1β,THP-1 cells [1]; [4],0
same,IL-6,THP-1 cells [1]; [4],<LLOD
same,TNF-α,THP-1 cells [1]; [4],<LLOD
same,IFNγ,THP-1 cells [1]; [5],1
same,IL-1β,THP-1 cells [1]; [5],0
same,IL-6,THP-1 cells [1]; [5],6
same,TNF-α,THP-1 cells [1]; [5],104
same,IFNγ,"THP-1 cells [1]; THP-1 alone, peptide exposed",<LLOD
same,IL-1β,"THP-1 cells [1]; THP-1 alone, peptide exposed",<LLOD
same,IL-2,"THP-1 cells [1]; THP-1 alone, peptide exposed",<LLOD
same,IL-5,"THP-1 cells [1]; THP-1 alone, peptide exposed",<LLOD
same,IL-6,"THP-1 cells [1]; THP-1 alone, peptide exposed",<LLOD
same,IL-10,"THP-1 cells [1]; THP-1 alone, peptide exposed",<LLOD
same,IL-12p70,"THP-1 cells [1]; THP-1 alone, peptide exposed",<LLOD
same,IL-13,"THP-1 cells [1]; THP-1 alone, peptide exposed",<LLOD
same,TNF-α,"THP-1 cells [1]; THP-1 alone, peptide exposed",0
same,IFNγ,THP-1 cells [1]; [6],<LLOD
same,IL-1β,THP-1 cells [1]; [6],0.1
same,IL-2,THP-1 cells [1]; [6],<LLOD
same,IL-4,THP-1 cells [1]; [6],<LLOD
same,IL-6,THP-1 cells [1]; [6],<LLOD
same,IL-8,THP-1 cells [1]; [6],8.1
same,IL-10,THP-1 cells [1]; [6],<LLOD
same,IL-12p70,THP-1 cells [1]; [6],<LLOD
same,IL-13,THP-1 cells [1]; [6],<LLOD
same,TNF-α,THP-1 cells [1]; [6],<LLOD
same,IFNγ production,HPV E7 Specific T cells; T Cells 10000,8078
same,IFNγ production,HPV E7 Specific T cells; T Cells 20000,17968
same,IFNγ production,HPV E7 Specific T cells; T Cells 40000,34161
same,IFNγ,HPV E7 Specific T cells; THP/T cell co-culture,33835
same,IL-1β,HPV E7 Specific T cells; THP/T cell co-culture,3
same,IL-6,HPV E7 Specific T cells; THP/T cell co-culture,23
same,TNF-α,HPV E7 Specific T cells; THP/T cell co-culture,697
same,IFNγ,HPV E7 Specific T cells; co-culture with T cells,65099
same,IL-1β,HPV E7 Specific T cells; co-culture with T cells,6
same,IL-6,HPV E7 Specific T cells; co-culture with T cells,1243
same,TNF-α,HPV E7 Specific T cells; co-culture with T cells,2309
same,IFNγ Mean,"HPV E7 Specific T cells; THP-1 incubated with peptide, mean of triplicate",41305 pg/mL
same,IFNγ Mean,PBMC; donor 213 PBMC cultured with 1T peptide,86.6
same,IFNγ Mean,PBMC; donor 358 PBMC stimulated with 1T,183.9
same,IFNγ Mean,PBMC; donor 358 PBMC stimulated with 2T,359.8
same,IFNγ in T cells after stimulation with peptide,T cells,higher levels of IFNγ
same,Basal IFNγ in THP-1 cells after stimulation with peptide,THP-1 cells [2],not detectable
